Data set [1] in a line: Drug uptake in human HepG2 cells at 10 uM measured after 1 hr by fluorescence analysis. It is filed as ADME, cell-based. The settings on record: hepg2, 1 h.
The nature of data set [2]: Drug uptake in human HepG2 cells assessed as mean fluorescence intensity at 10 uM measured after 1 hr by flow cytometry analysis (reference value: 2.74). The note with it: hepg2, 1 h. The class given is ADME, cell-based.
The nature of data set [3]: Solubility of the compound in water. It is filed as physicochemical. The settings on record: buffer.
A short description of data set [4]: Drug uptake in human A549 cells at 10 uM measured after 24 hrs by confocal laser scanning microscopic analysis. It is filed as ADME, cell-based. The settings on record: a549, 24 h.
The nature of data set [5]: Drug uptake in human HepG2 cells at 10 uM measured after 24 hrs by confocal laser scanning microscopic analysis. It is filed as ADME, cell-based. The note with it: hepg2, 24 h.
For data set [6], the system named is HepG2. In words: Antiproliferative activity against human HepG2 cells assessed as inhibition of cell proliferation after 72 hrs by MTT assay. The note with it: HepG2, 72 h. It is filed as functional, cell-based.
Data set [7] has as its system HepG2. The data set is described as follows: Potency index, ratio of compound uptake to irinotecan uptake in human HepG2 cells at 10 uM measured after 24 hrs by microplate reader analysis. It is filed as ADME, cell-based. The settings on record: hepg2, 24 h.
Data set [8] in a line: Drug metabolism in human HepG2 cells assessed as SN38 release at 10 uM measured after 24 hrs by microplate reader analysis. It is filed as ADME, cell-based. The settings on record: hepg2, 24 h.

SMILES strings stand for the structures.

For the molecule `CCN(CCn1cc(COCCOCCOCCOCCNC(=O)c2ccc(B(O)O)cc2)nn1)c1ccc(/C=C/C2=CC(=C(C#N)C#N)c3ccccc3O2)cc1`, the Drug uptake entry in data set [1] is “Active”. For the same molecule, in data set [2], the Flu intensity is reported as 99.42.

For the molecule `CCN(CCn1cc(COCCOCCOCCOCCNC(=O)Nc2ccc3c(c2)B(O)OC3)nn1)c1ccc(/C=C/C2=CC(=C(C#N)C#N)c3ccccc3O2)cc1`, the Drug uptake result in data set [1] is given as “Active”. In data set [2], the Flu intensity was determined as 86.91.

For `CCN(CCn1cc(COCCOCCOCCOCCNC(=O)c2cccc([N+](=O)[O-])c2)nn1)c1ccc(/C=C/C2=CC(=C(C#N)C#N)c3ccccc3O2)cc1`, in data set [1], the Drug uptake result is given as “Active”. The Flu intensity in data set [2] was 28.12. Moreover, in data set [3], the solubility result was “Soluble”.

In the case of `CCc1c2c(nc3ccc(OC(=O)N4CCC(CNC(=O)Nc5ccc6c(c5)B(O)OC6)CC4)cc13)-c1cc3c(c(=O)n1C2)COC(=O)[C@]3(O)CC`, the Drug uptake entry in data set [4] and in data set [5] was “Active” throughout. Also, in data set [6], the IC50 (commonly the concentration needed to halve the response being measured) was determined as 840 nM. In data set [7], the Ratio is 3. In addition, the Drug metabolism result in data set [8] is given as “Metabolite_Notdetected”.

On to `CCc1c2c(nc3ccc(OC(=O)N4CCC(CNC(=O)c5ccc(B(O)O)cc5)CC4)cc13)-c1cc3c(c(=O)n1C2)COC(=O)[C@]3(O)CC`, for which the Drug uptake result in data set [4] and in data set [5] was “Active” in each case. In addition, in data set [6], the IC50 stood at 1590 nM. In addition, the Ratio in data set [7] is 7. Also, the Drug metabolism result in data set [8] is given as “Metabolite_Notdetected”.

In the case of `CCN(CCn1cc(COCCOCCOCCOCCO)nn1)c1ccc(/C=C/C2=CC(=C(C#N)C#N)c3ccccc3O2)cc1`, the Drug uptake entry in data set [1] is on record as “Active”. Also, the Flu intensity in data set [2] worked out at 64.89. In data set [3], the solubility entry is reported as “Soluble”.

Consider `CCN(CCn1cc(COCCOCCOCCOCCNC(=O)c2cc(B(O)O)cc([N+](=O)[O-])c2)nn1)c1ccc(/C=C/C2=CC(=C(C#N)C#N)c3ccccc3O2)cc1`, for which the Drug uptake result in data set [1] is given as “Active”. Further, the Flu intensity in data set [2] was found to be 11.83.

Consider `CCc1c2c(nc3ccc(OC(=O)N4CCC(N5CCCCC5)CC4)cc13)-c1cc3c(c(=O)n1C2)COC(=O)[C@]3(O)CC`, for which the half-maximal inhibitory concentration (IC50) in data set [6] is 950 nM.
